In US4145419A, “Novel imidazobenzoxazines” (Roussel Uclaf, priority 1976, dated 1979):
Read-outs that look alike come from different tables or passages of the source.

Tested on: passive cutaneous anaphylaxis
Test: Passive Cutaneous Anaphylaxis (PCA) in Rats
Assay type: in vivo
Settings: Rattus norvegicus, dosed immediately prior to intravenous antigen challenge, read-out: ED50 (dose of drug giving 50% inhibition)
Text: Passive Cutaneous Anaphylaxis (PCA) in Rats
Cutaneous anaphylaxis can be induced in rats by intradermal (ID) sensitization with antiserum followed three days later by systemic challenge with antigen. Evans blue dye injected with the antigen is used as a marker to assess the severity of the local response. Anti-allergic drugs inhibit this reaction. This method has been described by OVARY (1962) "Passive Cutaneous Anaphylaxis in Allergology" Page 358-367 Ed. Brown: Pergamon Press:-male rats weighing 180-220 grams are used in groups of seven.
Preparation of Antigen for Sensitization (Alum precipitated ovalbumen)
1. Wash 120 grams of Al(OH)3 gel in 140 ml of saline (use of a macerater facilitates mixing).
2. Centrifuge at 3,000 r.p.m. for about 10 minutes.
3. Resuspend the precipitate with 300 ml of albumen egg powder (1.3 mg/ml) in saline and allow to stand for 30 minutes.
4. Centrifuge at 3,000 r.p.m. for 10 minutes.
5. Weigh the wet precipitate and to each gram weight add 1 ml of saline. Store in refrigerator (Quantity sufficient for 60 rats for a 3 day sensitization program).
Preparation of Antiserum (anti-ovalbumen)
1 ml of the alum precipitated ovalbumen was injected subcutaneously into rats weighing 180-200 grams on days 0,2,4. The rats were bled on day 14 either by cardiac puncture or via the dorsal abdominal aorta. Equal quantities of serum from each animal were pooled and thoroughly mixed and 2 ml aliquots were stored at -20° C. in plastic tubes.
The antiserum for sensitization was diluted so that an ID injection of 0.1 ml into control animals would give an average score of a single spot of between 2.0-3.5 using a 4 point scoring system.
(A) SENSITIZATION: The rats were anaesthetized with Nembutal (40-60 mg/kg i.p.) and were then sensitized by four ID injections (0.1 ml each) on their shaved backs. The animals were then left for a period of three days to develop sensitization.
(B) CHALLENGE: The sensitized rats were dosed orally or intraveneously with the drug immediately prior to intraveneous challage via the superficial penile vein with 1 ml of an antigen/Evans blue mixture (1 mg albumen egg powder in 0.5 ml saline plus 0.5 ml of 1% Evans blue). The injection were speeded up by using an automatic 1 ml self-filling glass syringe. The "challenged" rats were killed after 30 minutes, (usually pithed) and their skin on the dorsal surface was removed. The degree and area of blueing, proportional to the anaphylactic reaction was assessed on a four point scoring system.
1. Total scores for sites 1,2,3 and 4 = X
2. mean value of X for each group = X
3. x t = X for test group X c = X for control group
4. % inhibition = X c - X t/X c X 100/1
5. ed50 = dose of drug giving 50% inhibition.
ED50 values for the compounds tested in the passive cutaneous anaphylaxis screen (in rats) are as follows: […]

| Compound | ED50 (I.V.) [mg/kg] | ED50 (po, P.O.) [mg/kg] |
| --- | --- | --- |
| O=C(O)c1cn2c(n1)COc1ccc([N+](=O)[O-])cc1-2 [Example 10, 8-nitro-4H-imidazo-[2,1-c][1,4]-benzoxazine-2-carboxylic acid] | 2.2 | – |
| CC(=O)Nc1ccc2c(c1)-n1cc(C(=O)O)nc1CO2 [Example 11, 8-acetamido-4H-imidazo-[2,1-c][1,4]-benzoxazine-2-carboxylic acid] | 0.073 | > 10 |
| O=C(OCCN1CCOCC1)c1cn2c(n1)COc1ccccc1-2 [Example 5, 2-morpholinoethyl 4H-imidazo-[2,1-c][1,4]-benzoxazine-2-carboxylate] | 1.75 | 10.7 |
| O=C(O)c1cn2c(n1)COc1ccccc1-2 [Example 2, 4H-imidazo-[2,1-c][1,4]-benzoxazine-2-carboxylic acid] | 1.95 | 2.88 |
| COC(=O)c1cn2c(n1)COc1ccccc1-2 [Example 1, methyl 4H-imidazo-[2,1-c][1,4]-benzoxazine-2-carboxylate] | – | 10.8 |
| O=C(O)C(=O)Nc1ccc2c(c1)-n1cc(C(=O)O)nc1CO2 [Example 12, 8-oxalamino-4H-imidazo-[2,1-c][1,4]-benzoxazine-2-carboxylic acid] | – | 3.85 |
